In patent US20230203043A1, “NOVEL IMIDAZOPYRAZINE DERIVATIVES” (Hoffmann-La Roche Inc., priority 2020, published 2023):
Counter-ions that a name gives are not always drawn.

system: Acinetobacter baumannii ATCC17961; test: Antimicrobial susceptibility testing: 90% growth inhibitory concentration (IC90) determination in Iso-Sensitest broth, OD600 growth; assay type: cell-based; details: Acinetobacter baumannii, ATCC17961, 16 h, read-out: A. baumannii ATCC 17961 IC90 (uM), strain ATCC 17961, OD600 growth over 16 h
How it was run: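 Twofold compound dilutions (e.g. 50 to 0.097 μM final) in Iso-Sensitest broth with ~5×10^(5) CFU/ml, 35±2 °C. OD600 read every 20 min over 16 h; IC90 from growth inhibition during logarithmic phase.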

Going from `C[C@H](NC(=O)c1ccc(Nc2nccn3c(-c4c[nH]nc4C(F)(F)F)cnc23)cc1Cl)C(=O)N1CCC(N)CC1` [Example 126, N-[(2S)-1-(4-aminopiperidin-1-yl)-1-oxopropan-2-yl]-2-chloro-4-[[3-[3-(trifluoromethyl)-1H-pyrazol-4-yl]imidazo[1,2-a]pyrazin-8-yl]amino]benzamide formate] to `C[C@H](NC(=O)c1ccc(Nc2nccn3c(-c4c[nH]nc4C(F)(F)F)cnc23)cc1Cl)C(=O)N[C@H]1CCNC1` [Example 127, 2-chloro-N-[(2S)-1-oxo-1-[[(3S)-pyrrolidin-3-yl]amino]propan-2-yl]-4-[[3-[3-(trifluoromethyl)-1H-pyrazol-4-yl]imidazo[1,2-a]pyrazin-8-yl]amino]benzamide formate], the IC90 rises from 4.15 µM to greater than 5 µM.

`Cn1cc(Cn2cc(-c3cnc4c(Nc5ccc(C(=O)N6CCNCC6)c(Cl)c5)nccn34)c(C(F)(F)F)n2)cn1` [Example 134, [2-chloro-4-[[3-[1-[(1-methylpyrazol-4-yl)methyl]-3-(trifluoromethyl)pyrazol-4-yl]imidazo[1,2-a]pyrazin-8-yl]amino]phenyl]-piperazin-1-ylmethanone formate] and `O=C(c1ccc(Nc2nccn3c(-c4cn(Cc5cccnn5)nc4C(F)(F)F)cnc23)cc1Cl)N1CCNCC1` [Example 135, [2-chloro-4-[[3-[1-(pyridazin-3-ylmethyl)-3-(trifluoromethyl)pyrazol-4-yl]imidazo[1,2-a]pyrazin-8-yl]amino]phenyl]-piperazin-1-ylmethanone formate] are within 1.5-fold of each other in IC90: 0.768 µM for the first, 0.933 µM for the second.

same assay, conditions: Acinetobacter baumannii, ATCC17961, 16 h, strain ATCC 17961, OD600 growth over 16 h, read-out: A. baumannii ATCC 17961 IC90

Compared with `NCC(=O)N1CCN(C(=O)c2ccc(Nc3nccn4c(-c5c[nH]nc5C(F)(F)F)cnc34)cc2Cl)CC1` [Example 131, 2-amino-1-[4-[2-chloro-4-[[3-[3-(trifluoromethyl)-1H-pyrazol-4-yl]imidazo[1,2-a]pyrazin-8-yl]amino]benzoyl]piperazin-1-yl]ethanone], `O=C(CC1CNC1)N1CCN(C(=O)c2ccc(Nc3nccn4c(-c5c[nH]nc5C(F)(F)F)cnc34)cc2Cl)CC1` [Example 133, 2-(azetidin-3-yl)-1-[4-[2-chloro-4-[[3-[3-(trifluoromethyl)-1H-pyrazol-4-yl]imidazo[1,2-a]pyrazin-8-yl]amino]benzoyl]piperazin-1-yl]ethanone] is 2.8-fold higher in IC90: 0.117 µM for the first, 0.322 µM for the second.

`N#CCn1cc(-c2cnc3c(Nc4ccc(C(=O)N5CCN(C(=O)CN)CC5)c(Cl)c4)nccn23)c(C(F)(F)F)n1` [Example 132, 2-[4-[8-[4-[4-(2-aminoacetyl)piperazine-1-carbonyl]-3-chloroanilino]imidazo[1,2-a]pyrazin-3-yl]-3-(trifluoromethyl)pyrazol-1-yl]acetonitrile] was tested, and the IC90 was 0.136 µM.

same assay, conditions: strain ATCC 17961, OD600 growth over 16 h, read-out: A. baumannii ATCC 17961 IC90

First: C#CCn1cc(-c2cnc3c(Nc4ccc(C(=O)N[C@H](C)CNC(=O)OC(C)(C)C)c(CC)c4)nccn23)c(C(F)(F)F)n1 [Example 128, tert-butyl N-[(2R)-2-[[2-ethyl-4-[[3-[1-prop-2-ynyl-3-(trifluoromethyl)pyrazol-4-yl]imidazo[1,2-a]pyrazin-8-yl]amino]benzoyl]amino]propyl] carbamate]
Second: C=CCn1cc(-c2cnc3c(Nc4ccc(C(=O)N[C@H](C)CNC(=O)OC(C)(C)C)c(CC)c4)nccn23)c(C(F)(F)F)n1 [Example 129, tert-butyl N-[(2R)-2-[[2-ethyl-4-[[3-[1-prop-2-enyl-3-(trifluoromethyl)pyrazol-4-yl]imidazo[1,2-a]pyrazin-8-yl]amino]benzoyl]amino]propyl] carbamate]
The IC90 of the first is 1.6-fold lower: 0.659 µM for the first, 1.06 µM for the second.

`CCc1cc(Nc2nccn3c(-c4cn(CC(F)F)nc4C(F)(F)F)cnc23)ccc1C(=O)N[C@H](C)CNC(=O)OC(C)(C)C` [Example 130, tert-butyl N-[(2R)-2-[[4-[[3-[1-(2,2-difluoroethyl)-3-(trifluoromethyl)pyrazol-4-yl]imidazo[1,2-a]pyrazin-8-yl]amino]-2-ethylbenzoyl]amino]propyl] carbamate] gave an IC90 of 1.33 µM.
